In patent US8338480B2, “Combination treatment of metabolic disorders” (Wellstat Therapeutics Corporation, priority 2006, dated 2012):
Structures can show the parent of a compound that is named as a salt. Marks after values point to notes of the source that are not given here.

Tests used:
Assay type in all cases: in vivo
[1] = test system: Gold Thioglucose-obese mice; assay: Serum glucose, triglycerides and free fatty acids in gold thioglucose-obese mice (Example 1); conditions: GTG-obese mice, after two weeks
Procedure: Systemic administration of gold thioglucose (GTG) damages glucose-sensing neurons in the hypothalamus, and consequently impairs regulation of satiety, leading to chronic hyperphagia and consequent obesity.
Mice received single daily oral treatment with Compound BI, rosiglitazone or combinations of the two drugs. A group of lean control mice on a standard low fat rodent chow was also included.
(§1) • 1. Vehicle (1% hydroxypropylmethylcellulose) • 2. Compound BI 30 mg/kg • 3. Compound BI 100 mg/kg • 4. Rosiglitazone (RSG) 3 mg/kg • 5. RSG 3 mg/kg+Compound BI 30 mg/kg • 6. RSG 3 mg/kg+Compound BI 100 mg/kg • 7. Lean Control (no treatment)
After two weeks, blood samples were collected from the retro-orbital sinus for measurement of serum glucose, triglycerides, and free fatty acids.

Adiponectin = assay: Serum adiponectin in db/db mice after two weeks (Example 4); conditions: for Adiponectin ± SD: db/db mice serum
From the text: Adiponectin is an glycoprotein secreted from white adipose tissue. Adiponectin improves insulin sensitive in other tissues, e.g. muscle and liver, and is also protective against atherosclerosis. Thiazolidinedione antidiabetic agents such as rosiglitazone or pioglitazone act largely via action at the PPAR-gamma, a nuclear receptor involved in regulation of fuel metabolism. PPAR-gamma agonists enhance adiponectin production by adipose tissue, and this may contribute to their beneficial effects in diabetes and related metabolic disorders.
• 8. Vehicle (1% hydroxypropylmethylcellulose) • 9. Compound BI 100 mg/kg • 10. Rosiglitazone (RSG) 3 mg/kg • 11. Compound BI 100 mg/kg+RSG 3 mg/kg • 12. Compound CF 100 mg/kg • 13. Compound CF 100 mg/kg+RSG 3 mg/kg • 14. Compound CT 100 mg/kg+RSG 3 mg/kg • 15. […]
After two weeks, blood samples were collected from the retro-orbital sinus and processed for serum chemistry measurements.

db/db mice [2] = assay: Serum glucose and triglycerides in db/db mice treated for 4 weeks (Example 2); conditions: for Serum Glucose Mean / Serum Triglycerides Mean: 4 weeks oral gavage once per day
Procedure: Male db/db mice have a defect in the receptor for the appetite-regulating protein leptin and consequently develop hyperphagia, obesity, insulin resistance, hyperglycemia, hypertriglyceridemia. Male db/db mice are an accepted animal model for Type II diabetes. The effect of a range of single daily doses of orally administered Compound BI was assessed in this model, and the efficacy of rosiglitazone alone and in combination with Compound BI was also examined.
Male C57BL/Ksola db/db mice (“db/db mice”) were obtained from Harlan (Indianapolis, Ind.) and allowed to acclimate for a minimum of one week. […] Male C57BL/6 mice of the same age were used as lean nondiabetic controls.
Body weights and blood glucose levels were measured and animals were sorted groups of 6-7 mice with equivalent mean body weights in each group. […].
• 1. Lean Control (no treatment) • 2. Vehicle • 3. Compound BI 30 mg/kg/day • 4. Compound BI 100 mg/kg/day • 5. Compound BI 150 mg/kg/day • 6. Rosiglitazone 3 mg/kg • 7. Rosiglitazone 3 mg/kg+Compound BI 30 mg/kg • 8. Rosiglitazone 3 mg/kg+Compound BI 100 mg/kg • 9. Rosiglitazone 20 mg/kg • 10. Rosiglitazone 20 mg/kg+Compound BI 30 mg/kg • 11. Rosiglitazone 20 mg/kg+Compound BI 100 mg/kg
Drug preparation: Compound BI was suspended in a vehicle comprising 1% aqueous hydroxypropylmethylcellulose, using a tissue homogenizer to minimize particle size and maximize uniformity of the suspension. Rosiglitazone was suspended in the same vehicle. Drug concentrations in the dosing suspension for each treatment group were adjusted according to body weights so that a constant volume of 0.4 ml provided appropropriate drug doses in all groups.
Drug Administration: Drugs were administered orally by gavage once per day for 28 days.
Blood sampling: For serum chemistry analysis, nonfasting blood samples (200 microliters) were obtained via the retro-orbital sinus and collected in serum separator tubes at 11 AM on days 14 and 28 after initiation of drug administration.

[3] = test system: Gold Thioglucose-obese (GTG) mice; assay: Body weight and cumulative food intake in gold thioglucose-obese mice (Example 1); conditions: for Δ BW (g) 0-5 Weeks / Body Weight (g ± SEM) Week 1 / Body Weight (g ± SEM) Week 4 / Body Weight (g ± SEM) Week 5: GTG mice; for Cumulative Food Intake / Cumulative Food Intake (grams): per cage of 5 mice
Procedure: Systemic administration of gold thioglucose (GTG) damages glucose-sensing neurons in the hypothalamus, and consequently impairs regulation of satiety, leading to chronic hyperphagia and consequent obesity. Male C57BL/6J mice, weighing 22 to 25 grams received gold thioglucose (Sigma Chemical Company, St. Louis Mo.) by intraperitoneal injection (500 mg/kg). Mice were given a high fat diet (45% Kcal fat; D12451, Research Diets, New Brunswick, N.J.) for 8 weeks to exacerbate obesity.
Mice were then divided into groups comprising 5 mice each, sorted so that each group had similar mean body weights (approximately 47 grams). Mice received single daily oral treatment with Compound BI, rosiglitazone or combinations of the two drugs. A group of lean control mice on a standard low fat rodent chow was also included.
as §1

db/db mice [4] = assay: Serum glucose in db/db mice treated for two weeks (Example 6); conditions: for Glucose / Glucose (% Control): two weeks daily oral; for Glucose (% Control): vehicle = 100
Procedure: A minimum of 7 days was allowed for adaptation after arrival.
Treatment cohorts were given daily oral doses of vehicle, Compound BI (100 mg/kg/day), rosiglitazone (RSG; 3 mg/kg/day) or a combination of the two drugs for 2 weeks. At the end of the treatment period epididymal fat pads were excised, frozen and subsequently processed for measurement of UCP1 by Western Blot analysis. Blood samples were also collected prior to sacrifice via the retro-orbital plexus, and processed and analyzed for serum glucose (AniLytics, Inc.; Gaithersburg Md.).

[5] = Compound BI 30 mg/kg oral daily
[6] = Compound BI 100 mg/kg oral daily
[7] = GTG-obese mice, 5 weeks, Compound BI 30 mg/kg
[8] = GTG-obese mice, 5 weeks, Compound BI 100 mg/kg
[9] = GTG-obese mice, 5 weeks, RSG 3 mg/kg

SMILES: Cc1cccc(C)c1COc1cccc(C(=O)CCC(=O)O)c1 [Compound BI, 4-(3-(2,6-Dimethylbenzyloxy)phenyl)-4-oxobutyric acid]
- blood glucose, triglycerides and free fatty acids (in words) [1]: dose-dependent decreases
- Free Fatty Acids ± SEM [1, 5]: 969.2 ± 18.2 UMOL/L
- Glucose ± SEM [1, 5]: 205.8 ± 8.1 mg/dL
- Triglycerides ± SEM [1, 5]: 62.8 ± 3.0 mg/dL
- Free Fatty Acids ± SEM [1, 6]: 936.2 ± 63.0 UMOL/L
- Glucose ± SEM [1, 6]: 160.0 ± 17.7 mg/dL
- Triglycerides ± SEM [1, 6]: 53.8 ± 7.4 mg/dL
- Adiponectin ± SD (Adiponectin; compound alone 100 mg/kg): 9.3 ± 4.8 micrograms/ml
- effect on adiponectin with concurrent rosiglitazone (in words) (Adiponectin; db/db mice, 100 mg/kg + RSG 3 mg/kg): strongly amplify the effect of concurrent rosiglitazone on adiponectin
- serum adiponectin, individual agents (in words) (Adiponectin; db/db mice, agent alone): did not elevate serum adiponectin levels
- Serum Glucose Mean (db/db mice [2]; Compound BI 30 mg/kg): 657.8 mg/dL
- Serum Triglycerides Mean (db/db mice [2]; Compound BI 30 mg/kg): 281.2* mg/dL
- Serum Glucose Mean (db/db mice [2]; Compound BI 100 mg/kg): 330.3* mg/dL
- Serum Triglycerides Mean (db/db mice [2]; Compound BI 100 mg/kg): 179.1* mg/dL
- Serum Glucose Mean (db/db mice [2]; Compound BI 150 mg/kg): 271.7* mg/dL
- Serum Triglycerides Mean (db/db mice [2]; Compound BI 150 mg/kg): 177.7* mg/dL
- hyperglycemia, hypertriglyceridemia and free fatty acid levels (in words) (db/db mice [2]; combination: rosiglitazone 3 mg/kg/day + Compound BI 30 mg/kg/day): dose-dependent attenuation of hyperglycemia, hypertriglyceridemia and free fatty acid levels
- serum glucose (in words) (db/db mice [2]; oral once per day for 28 days): dose dependent reduction of serum glucose
- Δ BW (g) 0-5 Weeks [3, 5]: -9.8 ± 0.2 g
- Δ BW (g) 0-5 Weeks [3, 6]: -14.6 ± 0.3 g
- Body Weight (g ± SEM) Week 1 [3, 5]: 39.8 ± 0.9 g
- Body Weight (g ± SEM) Week 1 [3, 6]: 38.4 ± 1.1 g
- Body Weight (g ± SEM) Week 4 [3, 5]: 40.0 ± 1.1 g
- Body Weight (g ± SEM) Week 4 [3, 6]: 34.0 ± 1.0 g
- Body Weight (g ± SEM) Week 5 [3, 5]: 37.4 ± 0.9 g
- Body Weight (g ± SEM) Week 5 [3, 6]: 33.0 ± 1.1 g
- total food and calorie consumption (in words) ([3]; GTG-obese mice, 5 weeks): reduced total food and calorie consumption
- Cumulative Food Intake [3, 7]: 1048 kcal
- Cumulative Food Intake (grams) [3, 7]: 223 grams
- Cumulative Food Intake [3, 8]: 902 kcal
- Cumulative Food Intake (grams) [3, 8]: 192 grams
- body weight (in words) ([3]; GTG-obese mice, over the course of 5 weeks): decrease in body weight
- serum glucose (in words) (db/db mice [4]; 2 weeks, Compound BI 100 mg/kg/day, RSG 3 mg/kg/day, alone or combined): reduced serum glucose relative to vehicle treated control animals
- Glucose (db/db mice [4]; Cpd. BI 100 mg/kg): 302.0 ± 40.7 mg/dL
- Glucose (% Control) (db/db mice [4]; Cpd. BI 100 mg/kg): 44 ± 6 % Control

SMILES: CN(CCOc1ccc(CC2SC(=O)NC2=O)cc1)c1ccccn1 (stereo not drawn) [RSG, rosiglitazone maleate, reference compound]
- Free Fatty Acids ± SEM ([1]; RSG 3 mg/kg oral daily): 813.8 ± 34.2 UMOL/L
- Glucose ± SEM ([1]; RSG 3 mg/kg oral daily): 215.8 ± 14.3 mg/dL
- Triglycerides ± SEM ([1]; RSG 3 mg/kg oral daily): 61.4 ± 4.3 mg/dL
- Adiponectin ± SD (Adiponectin; RSG 3 mg/kg alone): 12.3 ± 3.0 micrograms/ml
- Serum Glucose Mean (db/db mice [2]; RSG 3 mg/kg): 382.8 mg/dL
- Serum Triglycerides Mean (db/db mice [2]; RSG 3 mg/kg): 99.2* mg/dL
- Serum Glucose Mean (db/db mice [2]; RSG 20 mg/kg): 344.7 mg/dL
- Serum Triglycerides Mean (db/db mice [2]; RSG 20 mg/kg): 117.3* mg/dL
- Δ BW (g) 0-5 Weeks ([3]; RSG 3 mg/kg oral daily): -1.2 ± 0.2 g
- Body Weight (g ± SEM) Week 1 ([3]; RSG 3 mg/kg oral daily): 47.0 ± 1.0 g
- Body Weight (g ± SEM) Week 4 ([3]; RSG 3 mg/kg oral daily): 46.0 ± 1.1 g
- Body Weight (g ± SEM) Week 5 ([3]; RSG 3 mg/kg oral daily): 46.3 ± 1.0 g
- Cumulative Food Intake [3, 9]: 1293 kcal
- Cumulative Food Intake (grams) [3, 9]: 275 grams
- Glucose (db/db mice [4]; RSG 3 mg/kg): 403.7 ± 28.0 mg/dL
- Glucose (% Control) (db/db mice [4]; RSG 3 mg/kg): 59 ± 4 % Control
